Measurements reported in patent US20250051338A1, “TYK2 DEGRADERS AND USES THEREOF” (Kymera Therapeutics, Inc., priority 2021, published 2025).

Target: T1, TYK2 (Homo sapiens, UniProt P29597)
Assay: TYK2 degradation MSD assay in OCI-LY10 cells
Type: cell-based
Set-up: endogenous in cells; host or cells: EBV-B cells
Settings: 4 to 24 hours incubation, read-out: TYK2 MSD DC50 rating in OCI-LY10
Procedure, shortened: (§1)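 0.4 million cells/well; cpd 9-dose 1:3 titration, top 1–10 μM; 4–24 h, 37° C, 5% CO2; RIPA lysis; TYK2 capture/detection sandwich on MSD, SULFO-TAG anti-rabbit secondary; DC50 via 4-parameter fit.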

T1 sequence (P29597 whole entry): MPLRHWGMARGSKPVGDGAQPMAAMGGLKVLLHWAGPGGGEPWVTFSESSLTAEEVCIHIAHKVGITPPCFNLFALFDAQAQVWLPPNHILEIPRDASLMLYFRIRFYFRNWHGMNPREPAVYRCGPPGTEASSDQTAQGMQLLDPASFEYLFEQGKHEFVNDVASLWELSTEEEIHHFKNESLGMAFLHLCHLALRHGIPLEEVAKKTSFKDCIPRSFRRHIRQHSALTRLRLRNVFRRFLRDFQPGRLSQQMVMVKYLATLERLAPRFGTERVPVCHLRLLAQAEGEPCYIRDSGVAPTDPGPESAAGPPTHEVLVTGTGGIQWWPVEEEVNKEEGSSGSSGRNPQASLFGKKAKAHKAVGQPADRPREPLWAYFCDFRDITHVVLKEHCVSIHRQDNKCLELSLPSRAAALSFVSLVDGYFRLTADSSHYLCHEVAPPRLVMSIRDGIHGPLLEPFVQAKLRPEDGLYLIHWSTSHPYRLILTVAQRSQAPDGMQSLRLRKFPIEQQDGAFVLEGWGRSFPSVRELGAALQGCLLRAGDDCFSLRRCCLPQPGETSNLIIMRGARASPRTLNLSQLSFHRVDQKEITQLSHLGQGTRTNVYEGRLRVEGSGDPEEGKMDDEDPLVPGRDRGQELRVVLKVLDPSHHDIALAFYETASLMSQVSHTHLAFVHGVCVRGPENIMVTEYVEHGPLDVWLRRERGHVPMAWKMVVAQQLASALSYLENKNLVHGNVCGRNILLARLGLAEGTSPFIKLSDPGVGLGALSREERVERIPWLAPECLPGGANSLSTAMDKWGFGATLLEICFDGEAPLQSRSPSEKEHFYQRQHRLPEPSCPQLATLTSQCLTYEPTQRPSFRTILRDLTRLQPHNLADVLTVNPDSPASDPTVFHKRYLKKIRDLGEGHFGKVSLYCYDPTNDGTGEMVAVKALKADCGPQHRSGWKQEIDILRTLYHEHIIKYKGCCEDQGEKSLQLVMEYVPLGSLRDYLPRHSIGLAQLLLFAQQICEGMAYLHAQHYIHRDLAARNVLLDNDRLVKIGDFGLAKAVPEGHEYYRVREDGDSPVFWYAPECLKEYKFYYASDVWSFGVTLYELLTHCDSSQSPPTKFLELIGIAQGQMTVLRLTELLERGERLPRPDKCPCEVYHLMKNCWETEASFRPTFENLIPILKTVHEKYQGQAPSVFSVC

| SMILES | DC50 |
| --- | --- |
| CNc1cc(Nc2cccn(-c3ccc(C(=O)N(C)C4CCN(Cc5cccc6c5n(C)c(=O)n6C5CCC(=O)NC5=O)CC4)cn3)c2=O)nn2c(C(=O)N[C@@H]3C[C@@H]3F)cnc12 (stereo partly drawn) [Example K279] | > 100 nM |
| CNc1cc(Nc2cccn(-c3ccc(C(=O)N(C)CC4CCN(c5ccc6c(c5)n(C)c(=O)n6C5CCC(=O)NC5=O)CC4)cn3)c2=O)nn2c(C(=O)N[C@@H]3C[C@@H]3F)cnc12 (stereo partly drawn) [Example K280] | > 100 nM |
| CNc1cc(Nc2cccn(-c3ccc(C(=O)N(C)CC4CCN(Cc5cccc6c5n(C)c(=O)n6C5CCC(=O)NC5=O)CC4)cn3)c2=O)nn2c(C(=O)N[C@@H]3C[C@@H]3F)cnc12 (stereo partly drawn) [Example K281] | > 100 nM |
| CNc1cc(-c2cnn(C3CCN(C(=O)NCCCCc4ccc5c(c4)n(C)c(=O)n5C4CCC(=O)NC4=O)CC3)c2)nn2c(C(=O)N[C@@H]3C[C@@H]3F)cnc12 (stereo partly drawn) [Example K294] | > 100 nM |
| CNc1cc(-c2cnn(C3CCN(C(=O)NCCCCc4cccc5c4n(C)c(=O)n5C4CCC(=O)NC4=O)CC3)c2)nn2c(C(=O)N[C@@H]3C[C@@H]3F)cnc12 (stereo partly drawn) [Example K295] | > 100 nM |
| CNc1cc(-c2cnn(C3CCN(C(=O)NCCCCCCCCc4ccc5c(c4)n(C)c(=O)n5C4CCC(=O)NC4=O)CC3)c2)nn2c(C(=O)N[C@@H]3C[C@@H]3F)cnc12 (stereo partly drawn) [Example K296] | > 100 nM |
| CNc1cc(-c2ccc(C(=O)NCCCCCCc3ccc4c(c3)n(C)c(=O)n4C3CCC(=O)NC3=O)cc2)nn2c(C(=O)N[C@@H]3C[C@@H]3F)cnc12 (stereo partly drawn) [Example K298] | > 100 nM |
| CNc1cc(-c2ccc(C(=O)NCCCCc3cccc4c3n(C)c(=O)n4C3CCC(=O)NC3=O)cc2)nn2c(C(=O)N[C@@H]3C[C@@H]3F)cnc12 (stereo partly drawn) [Example K299] | > 100 nM |
| CNc1cc(-c2ccc(C(=O)NCCCCCCc3cccc4c3n(C)c(=O)n4C3CCC(=O)NC3=O)cc2)nn2c(C(=O)N[C@@H]3C[C@@H]3F)cnc12 (stereo partly drawn) [Example K300] | > 100 nM |
| CNc1cc(-c2ccc(C(=O)NCCCCCCCCc3ccc4c(c3)n(C)c(=O)n4C3CCC(=O)NC3=O)cc2)nn2c(C(=O)N[C@@H]3C[C@@H]3F)cnc12 (stereo partly drawn) [Example K301] | > 100 nM |
| CNc1cc(C2CCN(C(=O)CCCCCCCc3ccc4c(c3)n(C)c(=O)n4C3CCC(=O)NC3=O)CC2)nn2c(C(=O)N[C@@H]3C[C@@H]3F)cnc12 (stereo partly drawn) [Example K302] | > 100 nM |
| CNc1cc(-c2ccc(C(=O)NCCCCCCCCc3cccc4c3n(C)c(=O)n4C3CCC(=O)NC3=O)cc2)nn2c(C(=O)N[C@@H]3C[C@@H]3F)cnc12 (stereo partly drawn) [Example K303] | > 100 nM |
| CNc1cc(C2CCCN(C(=O)CCCCCCCc3ccc4c(c3)n(C)c(=O)n4C3CCC(=O)NC3=O)C2)nn2c(C(=O)N[C@@H]3C[C@@H]3F)cnc12 (stereo partly drawn) [Example K304] | > 100 nM |
| CNc1cc(-c2cccc(C(=O)NCCCCc3cccc4c3n(C)c(=O)n4C3CCC(=O)NC3=O)c2)nn2c(C(=O)N[C@@H]3C[C@@H]3F)cnc12 (stereo partly drawn) [Example K305] | > 100 nM |
| CNc1cc(-c2cccc(C(=O)NCCCCCCc3ccc4c(c3)n(C)c(=O)n4C3CCC(=O)NC3=O)c2)nn2c(C(=O)N[C@@H]3C[C@@H]3F)cnc12 (stereo partly drawn) [Example K306] | > 100 nM |
| CNc1cc(-c2cccc(C(=O)NCCCCc3ccc4c(c3)n(C)c(=O)n4C3CCC(=O)NC3=O)c2)nn2c(C(=O)N[C@@H]3C[C@@H]3F)cnc12 (stereo partly drawn) [Example K307] | > 100 nM |

Target: T1, TYK2
Assay: TYK2 degradation MSD assay in human PBMC cells
Type: cell-based
Set-up: endogenous in cells; host or cells: human PBMC
Settings: 4 to 24 hours incubation, read-out: TYK2 MSD DC50 rating in human PBMC
Procedure, shortened: as §1

| SMILES | DC50 |
| --- | --- |
| CNc1cc(Nc2cccn(-c3ccc(C(=O)N(C)C4CCN(Cc5cccc6c5n(C)c(=O)n6C5CCC(=O)NC5=O)CC4)cn3)c2=O)nn2c(C(=O)N[C@@H]3C[C@@H]3F)cnc12 (stereo partly drawn) [Example K279] | < 1 nM |
| CNc1cc(Nc2cccn(-c3ccc(C(=O)N(C)CC4CCN(c5ccc6c(c5)n(C)c(=O)n6C5CCC(=O)NC5=O)CC4)cn3)c2=O)nn2c(C(=O)N[C@@H]3C[C@@H]3F)cnc12 (stereo partly drawn) [Example K280] | < 1 nM |
| CNc1cc(Nc2cccn(-c3ccc(C(=O)N(C)CC4CCN(Cc5cccc6c5n(C)c(=O)n6C5CCC(=O)NC5=O)CC4)cn3)c2=O)nn2c(C(=O)N[C@@H]3C[C@@H]3F)cnc12 (stereo partly drawn) [Example K281] | < 1 nM |
| CNc1cc(-c2cnn(C3CCN(C(=O)NCCCCc4ccc5c(c4)n(C)c(=O)n5C4CCC(=O)NC4=O)CC3)c2)nn2c(C(=O)N[C@@H]3C[C@@H]3F)cnc12 (stereo partly drawn) [Example K294] | > 100 nM |
| CNc1cc(-c2cnn(C3CCN(C(=O)NCCCCc4cccc5c4n(C)c(=O)n5C4CCC(=O)NC4=O)CC3)c2)nn2c(C(=O)N[C@@H]3C[C@@H]3F)cnc12 (stereo partly drawn) [Example K295] | > 100 nM |
| CNc1cc(-c2cnn(C3CCN(C(=O)NCCCCCCCCc4ccc5c(c4)n(C)c(=O)n5C4CCC(=O)NC4=O)CC3)c2)nn2c(C(=O)N[C@@H]3C[C@@H]3F)cnc12 (stereo partly drawn) [Example K296] | < 1 nM |
| CNc1cc(-c2ccc(C(=O)NCCCCCCc3ccc4c(c3)n(C)c(=O)n4C3CCC(=O)NC3=O)cc2)nn2c(C(=O)N[C@@H]3C[C@@H]3F)cnc12 (stereo partly drawn) [Example K298] | > 100 nM |
| CNc1cc(-c2ccc(C(=O)NCCCCc3cccc4c3n(C)c(=O)n4C3CCC(=O)NC3=O)cc2)nn2c(C(=O)N[C@@H]3C[C@@H]3F)cnc12 (stereo partly drawn) [Example K299] | > 100 nM |
| CNc1cc(-c2ccc(C(=O)NCCCCCCc3cccc4c3n(C)c(=O)n4C3CCC(=O)NC3=O)cc2)nn2c(C(=O)N[C@@H]3C[C@@H]3F)cnc12 (stereo partly drawn) [Example K300] | > 100 nM |
| CNc1cc(-c2ccc(C(=O)NCCCCCCCCc3ccc4c(c3)n(C)c(=O)n4C3CCC(=O)NC3=O)cc2)nn2c(C(=O)N[C@@H]3C[C@@H]3F)cnc12 (stereo partly drawn) [Example K301] | > 100 nM |
| CNc1cc(C2CCN(C(=O)CCCCCCCc3ccc4c(c3)n(C)c(=O)n4C3CCC(=O)NC3=O)CC2)nn2c(C(=O)N[C@@H]3C[C@@H]3F)cnc12 (stereo partly drawn) [Example K302] | > 100 nM |
| CNc1cc(-c2ccc(C(=O)NCCCCCCCCc3cccc4c3n(C)c(=O)n4C3CCC(=O)NC3=O)cc2)nn2c(C(=O)N[C@@H]3C[C@@H]3F)cnc12 (stereo partly drawn) [Example K303] | > 100 nM |
| CNc1cc(C2CCCN(C(=O)CCCCCCCc3ccc4c(c3)n(C)c(=O)n4C3CCC(=O)NC3=O)C2)nn2c(C(=O)N[C@@H]3C[C@@H]3F)cnc12 (stereo partly drawn) [Example K304] | > 100 nM |
| CNc1cc(-c2cccc(C(=O)NCCCCc3cccc4c3n(C)c(=O)n4C3CCC(=O)NC3=O)c2)nn2c(C(=O)N[C@@H]3C[C@@H]3F)cnc12 (stereo partly drawn) [Example K305] | > 100 nM |
| CNc1cc(-c2cccc(C(=O)NCCCCCCc3ccc4c(c3)n(C)c(=O)n4C3CCC(=O)NC3=O)c2)nn2c(C(=O)N[C@@H]3C[C@@H]3F)cnc12 (stereo partly drawn) [Example K306] | > 100 nM |
| CNc1cc(-c2cccc(C(=O)NCCCCc3ccc4c(c3)n(C)c(=O)n4C3CCC(=O)NC3=O)c2)nn2c(C(=O)N[C@@H]3C[C@@H]3F)cnc12 (stereo partly drawn) [Example K307] | > 100 nM |

Target: T1, TYK2
Assay: TYK2 degradation MSD assay in EBV-B cells
Type: cell-based
Set-up: endogenous in cells; host or cells: EBV-B cells
Settings: 4 to 24 hours incubation, read-out: TYK2 MSD DC50 rating in EBV-B
Procedure, shortened: as §1

| SMILES | DC50 |
| --- | --- |
| CNc1cc(Nc2cccn(-c3ccc(C(=O)N(C)C4CCN(Cc5cccc6c5n(C)c(=O)n6C5CCC(=O)NC5=O)CC4)cn3)c2=O)nn2c(C(=O)N[C@@H]3C[C@@H]3F)cnc12 (stereo partly drawn) [Example K279] | > 100 nM |
| CNc1cc(Nc2cccn(-c3ccc(C(=O)N(C)CC4CCN(c5ccc6c(c5)n(C)c(=O)n6C5CCC(=O)NC5=O)CC4)cn3)c2=O)nn2c(C(=O)N[C@@H]3C[C@@H]3F)cnc12 (stereo partly drawn) [Example K280] | < 1 nM |
| CNc1cc(Nc2cccn(-c3ccc(C(=O)N(C)CC4CCN(Cc5cccc6c5n(C)c(=O)n6C5CCC(=O)NC5=O)CC4)cn3)c2=O)nn2c(C(=O)N[C@@H]3C[C@@H]3F)cnc12 (stereo partly drawn) [Example K281] | < 1 nM |
| CNc1cc(-c2cnn(C3CCN(C(=O)NCCCCc4ccc5c(c4)n(C)c(=O)n5C4CCC(=O)NC4=O)CC3)c2)nn2c(C(=O)N[C@@H]3C[C@@H]3F)cnc12 (stereo partly drawn) [Example K294] | > 100 nM |
| CNc1cc(-c2cnn(C3CCN(C(=O)NCCCCc4cccc5c4n(C)c(=O)n5C4CCC(=O)NC4=O)CC3)c2)nn2c(C(=O)N[C@@H]3C[C@@H]3F)cnc12 (stereo partly drawn) [Example K295] | > 100 nM |
| CNc1cc(-c2cnn(C3CCN(C(=O)NCCCCCCCCc4ccc5c(c4)n(C)c(=O)n5C4CCC(=O)NC4=O)CC3)c2)nn2c(C(=O)N[C@@H]3C[C@@H]3F)cnc12 (stereo partly drawn) [Example K296] | > 100 nM |
| CNc1cc(-c2ccc(C(=O)NCCCCCCc3ccc4c(c3)n(C)c(=O)n4C3CCC(=O)NC3=O)cc2)nn2c(C(=O)N[C@@H]3C[C@@H]3F)cnc12 (stereo partly drawn) [Example K298] | > 100 nM |
| CNc1cc(-c2ccc(C(=O)NCCCCc3cccc4c3n(C)c(=O)n4C3CCC(=O)NC3=O)cc2)nn2c(C(=O)N[C@@H]3C[C@@H]3F)cnc12 (stereo partly drawn) [Example K299] | > 100 nM |
| CNc1cc(-c2ccc(C(=O)NCCCCCCc3cccc4c3n(C)c(=O)n4C3CCC(=O)NC3=O)cc2)nn2c(C(=O)N[C@@H]3C[C@@H]3F)cnc12 (stereo partly drawn) [Example K300] | > 100 nM |
| CNc1cc(-c2ccc(C(=O)NCCCCCCCCc3ccc4c(c3)n(C)c(=O)n4C3CCC(=O)NC3=O)cc2)nn2c(C(=O)N[C@@H]3C[C@@H]3F)cnc12 (stereo partly drawn) [Example K301] | > 100 nM |
| CNc1cc(C2CCN(C(=O)CCCCCCCc3ccc4c(c3)n(C)c(=O)n4C3CCC(=O)NC3=O)CC2)nn2c(C(=O)N[C@@H]3C[C@@H]3F)cnc12 (stereo partly drawn) [Example K302] | > 100 nM |
| CNc1cc(-c2ccc(C(=O)NCCCCCCCCc3cccc4c3n(C)c(=O)n4C3CCC(=O)NC3=O)cc2)nn2c(C(=O)N[C@@H]3C[C@@H]3F)cnc12 (stereo partly drawn) [Example K303] | > 100 nM |
| CNc1cc(C2CCCN(C(=O)CCCCCCCc3ccc4c(c3)n(C)c(=O)n4C3CCC(=O)NC3=O)C2)nn2c(C(=O)N[C@@H]3C[C@@H]3F)cnc12 (stereo partly drawn) [Example K304] | > 100 nM |
| CNc1cc(-c2cccc(C(=O)NCCCCc3cccc4c3n(C)c(=O)n4C3CCC(=O)NC3=O)c2)nn2c(C(=O)N[C@@H]3C[C@@H]3F)cnc12 (stereo partly drawn) [Example K305] | > 100 nM |
| CNc1cc(-c2cccc(C(=O)NCCCCCCc3ccc4c(c3)n(C)c(=O)n4C3CCC(=O)NC3=O)c2)nn2c(C(=O)N[C@@H]3C[C@@H]3F)cnc12 (stereo partly drawn) [Example K306] | > 100 nM |
| CNc1cc(-c2cccc(C(=O)NCCCCc3ccc4c(c3)n(C)c(=O)n4C3CCC(=O)NC3=O)c2)nn2c(C(=O)N[C@@H]3C[C@@H]3F)cnc12 (stereo partly drawn) [Example K307] | > 100 nM |
